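Grown in 96-well plates, cells were treated for 48 hours with each compound at five concentrations. Insufficient inhibition: endpoint recorded as highest concentration tested. GI50 is the concentration that inhibits growth by half. TGI marks complete inhibition of growth.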
Assays:
Experiment in all cases: NCI-60 cell line screen, 48 h; in the data active = GI50 below about 0.43 µM; inactive = the rest
[1] = system: A498 renal
[2] = system: HCT-116 colon
[3] = system: SK-MEL-28 melanoma
[4] = system: NCI-H522 lung
[5] = system: UACC-62 melanoma
[6] = system: KM12 colon
[7] = system: IGROV1 ovarian
[8] = system: LXFL 529 NSCLC
[9] = system: SF-539 CNS
[10] = system: HOP-92 NSCLC
[11] = system: COLO 205 colon
[12] = system: NCI-H23 lung
[13] = system: RPMI-8226 leukemia
[14] = system: SR leukemia
[15] = system: 786-0 renal
[16] = system: SF-295 CNS
[17] = system: HT29 colon
[18] = system: M19-MEL melanoma
[19] = system: HOP-62 NSCLC
[20] = system: SK-OV-3 ovarian
[21] = system: DLD-1 colon
[22] = system: SNB-78 CNS
[23] = system: SF-268 CNS
[24] = system: SNB-75 CNS
[25] = system: HCT-15 colon
[26] = system: SK-MEL-2 melanoma
[27] = system: LOX IMVI melanoma
[28] = system: U251 CNS
[29] = system: CAKI-1 renal
[30] = system: OVCAR-4 ovarian
[31] = system: NCI-H460 lung
[32] = system: ACHN renal
[33] = system: DMS 114 small cell lung
[34] = system: OVCAR-3 ovarian
[35] = system: MOLT-4 leukemia
[36] = system: OVCAR-5 ovarian
[37] = system: SK-MEL-5 melanoma
[38] = system: DMS 273 small cell lung
[39] = system: TK-10 renal
[40] = system: OVCAR-8 ovarian
[41] = system: UACC-257 melanoma
[42] = system: M14 melanoma
[43] = system: CCRF-CEM leukemia
[44] = system: SW-620 colon
[45] = system: A549 NSCLC
[46] = system: K-562 leukemia
[47] = system: RXF-631 renal
[48] = system: NCI-H226 lung
[49] = system: HL-60(TB) leukemia
[50] = system: EKVX NSCLC
[51] = system: UO-31 renal
[52] = system: SNB-19 CNS
[53] = system: HOP-18 NSCLC
[54] = system: RXF 393 renal
[55] = system: HCC-2998 colon
[56] = system: SN12C renal
[57] = system: MALME-3M melanoma
[58] = system: KM20L2 colon

NC(=O)c1cn(C2OC(CO)C(O)C2O)c(=O)[nH]c1=O (stereo unspecified)
> 100 µM: TGI [1] | TGI [2] | TGI [3] | TGI [4] | TGI [5] | TGI [6] | TGI [7] | TGI [8] | TGI [9] | TGI [10] | TGI [11] | TGI [12] | TGI [13] | TGI [14] | TGI [15] | TGI [16] | TGI [17] | TGI [18] | TGI [19] | TGI [20] | TGI [21] | TGI [22] | TGI [23] | TGI [24] | TGI [25] | TGI [26] | TGI [27] | TGI [28] | TGI [29] | TGI [30] | TGI [31] | TGI [32] | TGI [33] | TGI [34] | TGI [35] | TGI [36] | TGI [37] | TGI [38] | TGI [39] | TGI [40] | TGI [41] | TGI [42] | TGI [43] | TGI [44] | TGI [45] | TGI [46] | TGI [47] | TGI [48] | TGI [49] | TGI [50] | TGI [51]

O=C1C2c3[nH]c4ccccc4c3C3CCCCC3C2C(=O)N1c1ccccc1 (stereo unspecified)
> 100 µM: TGI [1] | TGI [52] | TGI [3] | TGI [5] | TGI [6] | TGI [7] | TGI [8] | TGI [9] | TGI [11] | TGI [12] | TGI [13] | TGI [14] | TGI [15] | TGI [16] | TGI [17] | TGI [18] | TGI [21] | TGI [22] | TGI [23] | TGI [25] | TGI [27] | TGI [28] | TGI [30] | TGI [55] | TGI [31] | TGI [32] | TGI [33] | TGI [34] | TGI [35] | TGI [36] | TGI [37] | TGI [38] | TGI [56] | TGI [39] | TGI [40] | TGI [57] | TGI [42] | TGI [43] | TGI [44] | TGI [45] | TGI [46] | TGI [47] | TGI [48] | TGI [49] | TGI [50] | TGI [51]
62.3 µM: TGI [54]
32.9 µM: TGI [24]
95.2 µM: TGI [53]
52.4 µM: TGI [20]

N#CC(C#N)=C1NN=C(Cl)c2ccccc21
> 100 µM: TGI [3] | TGI [4] | TGI [5] | TGI [6] | TGI [7] | TGI [8] | TGI [9] | TGI [53] | TGI [10] | TGI [11] | TGI [12] | TGI [13] | TGI [15] | TGI [16] | TGI [17] | TGI [18] | TGI [19] | TGI [20] | TGI [21] | TGI [23] | TGI [24] | TGI [25] | TGI [54] | TGI [26] | TGI [27] | TGI [28] | TGI [29] | TGI [30] | TGI [55] | TGI [31] | TGI [32] | TGI [33] | TGI [34] | TGI [35] | TGI [36] | TGI [37] | TGI [38] | TGI [56] | TGI [39] | TGI [40] | TGI [57] | TGI [41] | TGI [42] | TGI [43] | TGI [58] | TGI [44] | TGI [45] | TGI [46] | TGI [47] | TGI [49] | TGI [50] | TGI [51]

Nc1ccccc1Nc1ccccc1C(=O)[O-].Nc1ccccc1Nc1ccccc1C(=O)[O-].[Ni+2]
inactive: GI50 [10] > 100 µM | GI50 [14] > 100 µM | GI50 [54] 60.1 µM | GI50 [27] > 100 µM | GI50 [30] 67.8 µM | GI50 [47] > 100 µM | GI50 [48] > 100 µM | GI50 [49] > 100 µM
> 100 µM: TGI [52] | TGI [2] | TGI [3] | TGI [5] | TGI [6] | TGI [7] | TGI [9] | TGI [10] | TGI [11] | TGI [12] | TGI [13] | TGI [14] | TGI [15] | TGI [16] | TGI [17] | TGI [20] | TGI [23] | TGI [24] | TGI [25] | TGI [54] | TGI [27] | TGI [28] | TGI [29] | TGI [30] | TGI [55] | TGI [31] | TGI [32] | TGI [34] | TGI [35] | TGI [36] | TGI [37] | TGI [56] | TGI [39] | TGI [40] | TGI [57] | TGI [41] | TGI [42] | TGI [43] | TGI [58] | TGI [44] | TGI [45] | TGI [46] | TGI [47] | TGI [48] | TGI [49] | TGI [50] | TGI [51]
86 µM: TGI [4]

NS(=O)(=O)c1cc2c(cc1Cl)NC(/C(=N/NC(=O)c1ccncc1)C1C(=O)NC(=O)NC1=O)=NS2(=O)=O
> 100 µM: TGI [1] | TGI [52] | TGI [2] | TGI [5] | TGI [6] | TGI [7] | TGI [8] | TGI [9] | TGI [10] | TGI [11] | TGI [13] | TGI [15] | TGI [16] | TGI [18] | TGI [19] | TGI [20] | TGI [21] | TGI [22] | TGI [25] | TGI [26] | TGI [27] | TGI [28] | TGI [29] | TGI [30] | TGI [55] | TGI [31] | TGI [32] | TGI [33] | TGI [34] | TGI [35] | TGI [36] | TGI [37] | TGI [38] | TGI [39] | TGI [40] | TGI [57] | TGI [41] | TGI [42] | TGI [43] | TGI [58] | TGI [44] | TGI [45] | TGI [46] | TGI [47] | TGI [49] | TGI [50] | TGI [51]

From PubChem BioAssay (NCI)
